Reference: patent publication EP1169641B1, “PROTEOME MINING” (THE UNIVERSITY OF VIRGINIA PATENT FOUNDATION, priority 1999, dated 2000)

Molecular target: T1, purified human ADE2 (Homo sapiens, UniProt P22234)
T1 sequence (P22234 1-425): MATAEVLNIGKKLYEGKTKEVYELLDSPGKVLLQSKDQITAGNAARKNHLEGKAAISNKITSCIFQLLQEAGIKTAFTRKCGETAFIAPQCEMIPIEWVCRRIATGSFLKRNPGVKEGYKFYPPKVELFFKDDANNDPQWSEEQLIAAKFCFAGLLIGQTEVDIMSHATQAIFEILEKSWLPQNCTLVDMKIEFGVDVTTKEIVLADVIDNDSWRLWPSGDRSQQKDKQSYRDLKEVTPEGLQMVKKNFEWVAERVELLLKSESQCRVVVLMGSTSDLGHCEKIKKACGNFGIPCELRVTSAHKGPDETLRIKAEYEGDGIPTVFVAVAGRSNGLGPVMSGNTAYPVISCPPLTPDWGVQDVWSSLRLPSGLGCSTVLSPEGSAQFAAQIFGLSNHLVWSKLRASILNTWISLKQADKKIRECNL
Experiment: Assay of purified ADE2 (apparent Ki)
Format: biochemical
Conditions: apparent Ki for ADE2, three separate experiments, read-out: Ki^-1
Description: All assays were performed against purified human ADE2. Results shown are from three separate experiments. Compounds that eluted HSP90 selectively had no effect of ADE2 activity in vitro at µM concentrations. […] Table 2. Determination of apparent Ki for ADE2 against GA structural analogs

Ki: 62.5 µM
Compound: CO[C@H]1/C=C\C=C(/C)C(=O)NC2=CC(=O)C(NCCN(C)C)=C(C[C@@H](C)C[C@H](OC)[C@H](O)[C@@H](C)/C=C(\C)[C@@H]1OC(N)=O)C2=O [Inhibitor 707545]
